Patent publication US20250019374A1, “PROTEIN TYROSINE PHOSPHATASE INHIBITORS AND METHODS OF USE THEREOF” (Calico Life Sciences LLC, priority 2021, published 2025)
Where two headings read alike, the source gives them in different places.

Experiments:
[1] = target: His tagged full-length PTPN1 protein (Homo sapiens (Human), UniProt P18031); test: PTPN1 Mobility Shift Assay (MSA); type: biochemical; conditions: enzyme 0.5 nM, substrate 2 μM
Experimental: Example III-2: Mobility Shift Assay (MSA) Used to Determine Potency of PTPN1 Inhibitors
Compound activity was determined using in house His tagged full-length PTPN1 protein (SEQ ID NO: 3) in an in vitro enzymatic reaction. The enzymatic assay used to determine activity is a mobility shift assay using a LabChip EZ Reader by Caliper Life Sciences. The enzymatic reaction was carried out in assay buffer (50 mM HEPES pH 7.5, 1 mM EGTA, 10 mM EDTA, 0.01% Tween® 20, and 2 mM DTT). The compounds were dispensed on a white 384 well ProxiPlate™ (PerkinElmer Cat ^#6008289) plate using a Labcyte Echo® liquid handler at varying concentrations (12 point, 1:3 dilution). The enzyme (at 0.5 nM) was incubated with compound for 10 minutes at room temperature. Thereafter, the substrate (phosphorylated insulin receptor probe sequence: ((OG488)-(NH—CH2—CH2—O—CH2—CH2—O—CH2—CO)-T-R-D-I—(PY)-E-T-D-Y—Y—R—K—K—NH2) (SEQ ID NO: 2) was added at 2 μM to the plates and incubated for another 10 minutes at room temperature. Finally, a quench solution (water and 4-bromo-3-(2-oxo-2-propoxyethoxy)-5-(3-{[1-(phenylmethanesulfonyl)piperidin-4-yl]amino}phenyl)thiophene-2-carboxylic acid) was added to the plates, which were then run on the EZ Reader (excitation 488 nm, emission 530 nm) to measure % conversion (the amount of phosphorylated substrate which was de-phosphorylated by PTPN1). […] The % inhibition was then used to calculate the IC50 values.

[2] = target: His tagged PTPN2 (TC45) protein (Homo sapiens (Human), UniProt P17706); test: PTPN2 Mobility Shift Assay (MSA); type: biochemical; conditions: for Dihydrobenzofuran or Indoline x-fold>potency biochemical: x-fold versus corresponding chromane comparator, PTPN2 MSA
His tagged PTPN2 (TC45) protein, sequence (P17706 other isoform, or with tags, fused parts or gaps): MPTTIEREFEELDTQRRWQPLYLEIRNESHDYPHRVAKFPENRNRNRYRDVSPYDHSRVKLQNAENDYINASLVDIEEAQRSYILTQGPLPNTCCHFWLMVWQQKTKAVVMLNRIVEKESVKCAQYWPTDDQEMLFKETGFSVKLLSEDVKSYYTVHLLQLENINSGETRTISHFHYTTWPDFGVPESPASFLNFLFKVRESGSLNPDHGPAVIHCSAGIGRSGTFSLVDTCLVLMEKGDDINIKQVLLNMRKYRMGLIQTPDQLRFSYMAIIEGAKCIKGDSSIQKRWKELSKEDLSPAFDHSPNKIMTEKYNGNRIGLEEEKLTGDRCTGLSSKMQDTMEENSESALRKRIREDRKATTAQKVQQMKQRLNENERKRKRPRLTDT
Experimental: Example III-1: Mobility Shift Assay (MSA) Used to Determine Potency of PTPN2 Inhibitors
Compound activity was determined using in house His tagged PTPN2 (TC45) protein (SEQ ID NO: 1) in an in vitro enzymatic reaction. The enzymatic assay used to determine activity was a mobility shift assay using a LabChip EZ Reader by Caliper Life Sciences. The enzymatic reaction was carried out in assay buffer (50 mM HEPES pH 7.5, 1 mM EGTA, 10 mM EDTA, 0.01% Tween® 20, and 2 mM DTT). The compounds were dispensed on a white 384 well ProxiPlate™ (PerkinElmer Catalog #6008289) plate using the Labcyte Echo at varying concentrations (12 point, 1:3 dilution). The enzyme (at 0.5 nM) was incubated with compound for 10 minutes at room temperature. Thereafter, the substrate (phosphorylated insulin receptor probe sequence: ((OG488)-(NH—CH2—CH2—O—CH2—CH2—O—CH2—CO)-T-R-D-I—(PY)-E-T-D-Y—Y—R—K—K—NH2) (SEQ ID NO: 2) was added at 2 μM to the plates and incubated for another 10 minutes at room temperature. Finally, a quench solution (water and 4-bromo-3-(2-oxo-2-propoxyethoxy)-5-(3-{[1-(phenylmethanesulfonyl)piperidin-4-yl]amino}phenyl)thiophene-2-carboxylic acid) was added to the plates, which were then run on the EZ Reader (excitation 488 nm, emission 530 nm) to measure % conversion (the amount of phosphorylated substrate which was de-phosphorylated by PTPN2). […] The % inhibition was then used to calculate the IC50 values.

[3] = system: IFNγ-induced STAT1 phosphorylation (pSTAT1) in B16F10 cells; test: B16F10 Phospho-STAT1 HTRF proximal pharmacodynamic (PD) assay; type: cell-based, murine; conditions: for EC50: B16-F10, B16F10 cells; for Dihydrobenzofuran or Indoline x-fold>potency cellular: x-fold versus corresponding chromane comparator, B16F10 pSTAT1
Experimental: Example III-3: B16F10 (Murine Melanoma Cells) Phospho-STAT1 HTRF Proximal Pharmacodynamic (PD) Assay
B16F10 cells were grown and maintained in high glucose DMEM (Gibco, Catalog^#11965-092, Dun Laoghaire Co Dublin) supplemented with 10% fetal bovine serum (Gibco, Catalog^#10082-139, Dun Laoghaire Co Dublin). The cells were pelleted and resuspended in high glucose DMEM without phenol red (Gibco, Catalog^#11054-020, Dun Laoghaire Co Dublin), supplemented with 10% fetal bovine serum and plated in a 384 well Corning plate (product^#3765, Corning, NY) at 11,000 cells per well in a volume of 20 μL. The cells were dosed with the compounds of interest using an Echo Liquid Handler (Beckman Coulter, Brea, CA) at 50 μM top dose with 3-fold dilutions down to 0.002679 μM for a 10-point dose response. The plate was incubated for 3 hours at 37° C. and subsequently treated with recombinant mouse IFNγ (R&D Systems, Catalog^#485-MI, Minneapolis, MN; 100 nM final concentration) for 10 minutes at 37° C. to induce STAT1 phosphorylation followed by 3.3 μM staurosporine treatment for 1 hour at 37° C. to terminate phosphorylation. Media was then aspirated and 20 μL of 1× lysis buffer/blocking reagent (Cisbio Phospho-STAT1 kit, part^# 63ADK026PEH, Bedford, MA) was added. The plate was placed on a plate shaker for 30 minutes at room temperature, sealed, and stored at −80° C. until needed. To thaw, the plate was placed on shaker at room temperature until completely thawed while the antibody master mix was made (1:40 Phospho-STAT1 Eu Cryptate antibody, 1:40 Phospho-STAT d2 antibody, with the detection buffer; Cisbio Phospho-STAT1 kit, part^#63ADK026PEH, Bedford, MA). The antibody master mix was then dispensed at 4 μL per well into a 384 ProxiPlate Plus (PerkinElmer, part^#6008289, Waltham, MA) and 16 μL of lysate was added from the Corning plate to the Proxiplate using a VIAFLO 384 (INTEGRA). The plate was incubated for 3 hours at room temperature and read on an EnVision® (Perkin Elmer) plate reader with laser excitation at 335 nm and emission at 665 nm. Dotmatics Studies (Bishop's Stortford, UK) was utilized to generate all dose-response curves and calculate EC50s and are shown in Table 2.

[4] = Table 3, dihydrobenzofuran or indoline compound (X = O or NH)
[5] = 3 hours compound, 100 nM mouse IFNγ 10 minutes, read-out: B16F10 IFNγ Induced pSTAT1 EC50
[6] = Mus musculus, Table 3, dihydrobenzofuran or indoline compound (X = O or NH), read-out: pSTAT1 EC50

His tagged full-length PTPN1 protein, sequence (P18031 whole entry): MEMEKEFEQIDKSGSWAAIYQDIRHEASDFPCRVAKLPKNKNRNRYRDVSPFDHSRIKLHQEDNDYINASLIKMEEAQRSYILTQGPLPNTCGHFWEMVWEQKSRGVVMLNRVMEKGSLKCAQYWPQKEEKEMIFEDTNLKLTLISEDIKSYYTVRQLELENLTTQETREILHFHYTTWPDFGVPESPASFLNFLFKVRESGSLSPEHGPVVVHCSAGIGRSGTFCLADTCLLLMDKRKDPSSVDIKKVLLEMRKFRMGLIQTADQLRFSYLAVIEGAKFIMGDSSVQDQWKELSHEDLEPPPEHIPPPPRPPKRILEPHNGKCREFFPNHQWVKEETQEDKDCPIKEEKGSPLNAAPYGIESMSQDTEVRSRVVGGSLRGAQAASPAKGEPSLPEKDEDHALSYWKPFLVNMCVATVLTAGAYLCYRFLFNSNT

Row | SMILES | IC50 [1] [nM] | EC50 [3, 5] [nM] | EC50 [3, 6] [nM] | IC50 [2, 4] [nM] | IC50 ([2]; enzyme 0.5 nM, substrate 2 μM) [nM] | Dihydrobenzofuran or Indoline x-fold>potency biochemical [2] | Dihydrobenzofuran or Indoline x-fold>potency cellular [3]
1 | CCCNC[C@H]1Cc2c(cc(O)c(N3CC(=O)NS3(=O)=O)c2F)O1 [Compound 109, 5-{(2R)-4-fluoro-6-hydroxy-2-[(propylamino)methyl]-2,3-dihydro-1-benzofuran-5-yl}-1λ^6,2,5-thiadiazolidine-1,1,3-trione] | 10 to 100 | 1350 | – | – | 10 to 100 | – | –
2 | CCCN(CCC)C[C@H]1Cc2c(cc(O)c(N3CC(=O)NS3(=O)=O)c2F)O1 [Compound 110, 5-{(2R)-2-[(dipropylamino)methyl]-4-fluoro-6-hydroxy-2,3-dihydro-1-benzofuran-5-yl}-1λ^6,2,5-thiadiazolidine-1,1,3-trione] | 10 to 100 | 18000 | – | – | 10 to 100 | – | –
3 | O=C1CN(c2c(O)cc3c(c2F)C[C@H](CNCC2CCOCC2)O3)S(=O)(=O)N1 [Compound 114, 5-[(2R)-4-fluoro-6-hydroxy-2-({[(oxan-4-yl)methyl]amino}methyl)-2,3-dihydro-1-benzofuran-5-yl]-1λ^6,2,5-thiadiazolidine-1,1,3-trione] | 10 to 100 | 1460 | – | – | 10 to 100 | – | –
4 | O=C1CN(c2c(O)cc3c(c2F)C[C@H](CNCC2CC2)O3)S(=O)(=O)N1 [Compound 117, 5-[(2R)-2-{[(cyclopropylmethyl)amino]methyl}-4-fluoro-6-hydroxy-2,3-dihydro-1-benzofuran-5-yl]-1λ^6,2,5-thiadiazolidine-1,1,3-trione] | 10 to 100 | 818 | – | – | 10 to 100 | – | –
5 | O=C1CN(c2c(O)cc3c(c2F)C[C@H](CN(CC2CC2)CC2CC2)O3)S(=O)(=O)N1 [Compound 118, 5-[(2R)-2-{[bis(cyclopropylmethyl)amino]methyl}-4-fluoro-6-hydroxy-2,3-dihydro-1-benzofuran-5-yl]-1λ^6,2,5-thiadiazolidine-1,1,3-trione] | 10 to 100 | 20100 | – | – | 10 to 100 | – | –
6 | O=C1CN(c2c(O)cc3c(c2F)C[C@H](CNCC2COC2)O3)S(=O)(=O)N1 [Compound 120, 5-[(2R)-4-fluoro-6-hydroxy-2-({[(oxetan-3-yl)methyl]amino}methyl)-2,3-dihydro-1-benzofuran-5-yl]-1λ^6,2,5-thiadiazolidine-1,1,3-trione] | 10 to 100 | 1610 | – | – | 10 to 100 | – | –
7 | O=C1CN(c2c(O)cc3c(c2F)C[C@H](CNCCC2(CO)CCCC2)O3)S(=O)(=O)N1 [Compound 122, 5-{(2R)-4-fluoro-6-hydroxy-2-[({2-[1-(hydroxymethyl)cyclopentyl]ethyl}amino)methyl]-2,3-dihydro-1-benzofuran-5-yl}-1λ^6,2,5-thiadiazolidine-1,1,3-trione] | 10 to 100 | 1980 | – | – | 10 to 100 | – | –

The next lines start with results.

Row | IC50 [1] [nM] | EC50 [3, 5] [nM] | EC50 [3, 6] [nM] | SMILES | IC50 [2, 4] [nM] | IC50 ([2]; enzyme 0.5 nM, substrate 2 μM) [nM] | Dihydrobenzofuran or Indoline x-fold>potency biochemical [2] | Dihydrobenzofuran or Indoline x-fold>potency cellular [3]
8 | 10 to 100 | 1910 | 1910 | O=C1CN(c2c(O)cc3c(c2F)C[C@H](CNCCC2CCOC2)O3)S(=O)(=O)N1 (stereo partly drawn) [Compound 108, 5-[(2R)-4-fluoro-6-hydroxy-2-({[2-(oxolan-3-yl)ethyl]amino}methyl)-2,3-dihydro-1-benzofuran-5-yl]-1λ^6,2,5-thiadiazolidine-1,1,3-trione] | 15.8 | 10 to 100 | 2.3 | 11.8
9 | 10 to 100 | 1110 | – | CCCCNC[C@H]1Cc2c(cc(O)c(N3CC(=O)NS3(=O)=O)c2F)O1 [Compound 111, 5-{(2R)-2-[(butylamino)methyl]-4-fluoro-6-hydroxy-2,3-dihydro-1-benzofuran-5-yl}-1λ^6,2,5-thiadiazolidine-1,1,3-trione] | – | 10 to 100 | – | –
10 | 10 to 100 | 776 | – | CCNC[C@H]1Cc2c(cc(O)c(N3CC(=O)NS3(=O)=O)c2F)O1 [Compound 112, 5-{(2R)-2-[(ethylamino)methyl]-4-fluoro-6-hydroxy-2,3-dihydro-1-benzofuran-5-yl}-1λ^6,2,5-thiadiazolidine-1,1,3-trione] | – | 10 to 100 | – | –
11 | 10 to 100 | 770 | – | O=C1CN(c2c(O)cc3c(c2F)C[C@H](CNCC2CCCC2)O3)S(=O)(=O)N1 [Compound 113, 5-[(2R)-2-{[(cyclopentylmethyl)amino]methyl}-4-fluoro-6-hydroxy-2,3-dihydro-1-benzofuran-5-yl]-1λ^6,2,5-thiadiazolidine-1,1,3-trione] | – | 10 to 100 | – | –
12 | 10 to 100 | 835 | 835 | CC(C)CCNC[C@H]1Cc2c(cc(O)c(N3CC(=O)NS3(=O)=O)c2F)O1 [Compound 115, 5-[(2R)-4-fluoro-6-hydroxy-2-{[(3-methylbutyl)amino]methyl}-2,3-dihydro-1-benzofuran-5-yl]-1λ^6,2,5-thiadiazolidine-1,1,3-trione] | 17.1 | 10 to 100 | 0.9 | 8.3
13 | 10 to 100 | 736 | – | CCC(C)CNC[C@H]1Cc2c(cc(O)c(N3CC(=O)NS3(=O)=O)c2F)O1 (stereo partly drawn) [Compound 116, 5-[(2R)-4-fluoro-6-hydroxy-2-{[(2-methylbutyl)amino]methyl}-2,3-dihydro-1-benzofuran-5-yl]-1λ^6,2,5-thiadiazolidine-1,1,3-trione] | – | 10 to 100 | – | –
14 | 10 to 100 | 848 | – | O=C1CN(c2c(O)cc3c(c2F)C[C@H](CNCC2CCC2)O3)S(=O)(=O)N1 [Compound 119, 5-[(2R)-2-{[(cyclobutylmethyl)amino]methyl}-4-fluoro-6-hydroxy-2,3-dihydro-1-benzofuran-5-yl]-1λ^6,2,5-thiadiazolidine-1,1,3-trione] | – | 10 to 100 | – | –
15 | 10 to 100 | 1740 | – | O=C1CN(c2c(O)cc3c(c2F)C[C@H](CNCCC2(CO)CCC2)O3)S(=O)(=O)N1 [Compound 121, 5-{(2R)-4-fluoro-6-hydroxy-2-[({2-[1-(hydroxymethyl)cyclobutyl]ethyl}amino)methyl]-2,3-dihydro-1-benzofuran-5-yl}-1λ^6,2,5-thiadiazolidine-1,1,3-trione] | – | 10 to 100 | – | –
